Read-outs that look alike come from different tables or passages of the source.
What was measured:
Format in all cases: cell-based
293-CuO-GFPq13# cells = assay: GFP expression from stably integrated pAdCMV5-CuO-GFPq in 293-CuO-GFPq13#
Experimental: 1×10^6 293-CymR clone 21 were transfected with 10 μg of pAdCMV5-CuO-GFPq. GFP expression was induced by the addition of 200 μg/ml cumate and individual GFP positive cells were picked by Quixell™ (Caron, A. W., et al., Methods in cell science 22: 137-145, 2000).
293-CuO-GFPq13# were cultured in the presence and absence of cumate for 48 h. Photographs were taken using an inverted fluorescence microscope (Leica, Wetzlar, Germany). […] In the OFF state (FIG. 15B) only two GFP-positive cells are visible in the microscopic field.
Total GFP fluorescence was measured in the ON (9255) and OFF (3.75) states using an EPICS-XL flow cytometer (Coulter). The ON/OFF ratio for this clone was […].

[1] = biological target: CymR-VP16 transactivator in 293 cells (Pseudomonas putida, UniProt O33453)
Experimental: (§1) Transient transfections in 293 and HeLa cells were carried out using the calcium phosphate technique. One (1) ml of DNA-calcium phosphate precipitate contained 5 μg reporter, 250 ng activator/repressor (unless mentioned otherwise) and 3 μg seap in a total of 10 μg DNA. This was divided equally between two 60 mm plates, each containing 10^6 293 cells. One of the two plates received in addition 200 μg/ml cumate. Transient transfections in BMAD78-42 were carried out using Geneporter™ according to manufacturers directions. Briefly, 3 μg DNA (2 μg reporter, 25 ng transactivator and 0.5 μg seap) in 500 μl DMEM was added to 6×10^5 BMAd78-42 cells in DMEM. After 3 h 1 ml DMEM supplemented with 20% serum was added to the plates. Half the samples received DMEM supplemented with 20% serum and 400 μg/ml cumate.
Measurement of Seap and β-gal activity Seap activity was measured in 50 μl of cell culture medium by adding 50 μl of 2× seap buffer (1M diethanolamine PH 9.8, 2 mM MgCl2, 10 mM 1-homoarginine and 20 mM p-nitrophenyl phosphate, disodium, hexahydrate Sigma 104 phosphatase substrate) and incubating at room temperature. OD405 was read using a plate reader at different intervals. This information was used to ensure that the enzyme activity was measured under conditions where the substrate was in excess. β-galactosidase activity was measured in transfected cell extracts. Cells were lysed 48 h post-transfection by three freeze-thaw cycles in 0.25M Tris.Hcl pH8. The cell lysate was centrifuged at 14,000×g and enzyme (β-galactosidase) activity was measured in the supernatant (cell extract) using a colorimetric assay containing 1 mM MgCl2, 0.9 mg/ml ONPG, and 66 mM sodium phosphate (pH 7.5). Reactions were incubated at 37° C. until a faint yellow color had developed. OD420 was measured at regular intervals until the reaction appeared to plateau. To measure low level activity (basal activity in the absence of transactivation) a chemiluminescent substrate was used. The reaction was performed using a kit from Roche diagnostics according to the instructions of the manufacturer.
To test the system, reporter and activator constructs as described in Example I above, were co-transfected into 293 cells by the calcium-phosphate technique. A plasmid carrying the secreted alkaline phosphatase coding sequence under the control of a constitutive promoter was included in all transfections and seap activity in the cell culture medium was used to normalize for transfection efficiency.

[2] = biological target: CymR-VP16 transactivator in HeLa cells (Pseudomonas putida, UniProt O33453); assay: Cumate switch strategy 1: transient co-transfection, β-gal, HeLa cells
Experimental: as §1, with “Half the samples received DMEM supplemented with 20% serum and 400 μg/ml cumate.” left out
Measurement of Seap and β-gal activity Seap activity was measured in 50 μl of cell culture medium by adding 50 μl of 2× seap buffer (1M diethanolamine PH 9.8, 2 mM MgCl2, 10 mM 1-homoarginine and 20 mM p-nitrophenyl phosphate, disodium, hexahydrate Sigma 104 phosphatase substrate) and incubating at room temperature. OD405 was read using a plate reader at different intervals. This information was used to ensure that the enzyme activity was measured under conditions where the substrate was in excess. β-galactosidase activity was measured in transfected cell extracts. […] OD420 was measured at regular intervals until the reaction appeared to plateau. […]

293-CymR clone 21 = conditions: 200 μg/ml cumate, 48 h post-transfection
mammalian cells = assay: Effect of cumate on morphology, growth and toxicity in mammalian cells
[3] = tested on: CHO-cTA clones (cumate transactivator); assay: Adenoviral infection of CHO-cTA clones, total GFP fluorescence by flow cytometry
Experimental: 1×10^6 CHO cells were transfected with 5 μg of pMPG-cTA-tk-neo-nls using 12 μl of LIPOFECTAMINE 2000 according to the instructions of the manufacturer. 1200 μg/ml G418 was added to the growth medium 48 h after transfection to select a pool of G418-resistant cells. Individual clones (CHO-cTA) were isolated from this pool by the method of limiting dilution.
CHO-cTA clones were infected with AdCMV5GFPq or AdCR5GFPq at MOIs of 100, 300 and 900 in the presence or absence of 200 μg/ml cumate. Forty-eight hours post-infection, cells were fixed in 2% paraformaldehyde in PBS. Total GFP fluorescence of the infected population was measured using an EPICS-XL flow cytometer (Coulter).

293-CymR cells = conditions: 293-CymR infected with rAd expressing VSVg
293 CuO-GFP clone 13 = assay: Testing of cumate analogues as effector molecule (FIG. 16)
Text: Of course cumate can be substituted for various cumate analogues also referred to as effector molecule as described before.
The Deposits were received by the authority on Apr. 10, 2002, and were given accession number IDA-100402-1 and IDA-100402-2, respectively. 293 CuO-GFP clone 13 was also deposited on Apr. 10, 2002 in the same IDA and was given accession number IDA-100401-3.

CymR-VP16 transactivator in 293 cells, sequence (O33453 whole entry, added parts left off): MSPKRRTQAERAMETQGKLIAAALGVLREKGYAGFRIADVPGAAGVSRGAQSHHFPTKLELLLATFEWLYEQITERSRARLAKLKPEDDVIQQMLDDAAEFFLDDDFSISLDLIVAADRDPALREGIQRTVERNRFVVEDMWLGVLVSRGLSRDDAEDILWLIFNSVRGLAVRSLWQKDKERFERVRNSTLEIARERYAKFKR
CymR-VP16 transactivator in HeLa cells, sequence (O33453 whole entry, added parts left off): as above

CC(C)c1ccc(C(=O)O)cc1 [cumate, cumic acid]
cells positive for GFP expression in the presence of cumate (293-CuO-GFPq13# cells; 48 h culture): 100% | ON/OFF ratio of total GFP fluorescence (293-CuO-GFPq13# cells; clone 293-CuO-GFPq13#): 246 | Total GFP fluorescence, ON state (293-CuO-GFPq13# cells; with cumate, flow cytometer): 9255 | reduction of activation on addition of cumate ([1]; pAdCR5LacZ + pAdcTA1(+nls), 200 μg/ml cumate): 78% | reduction of activation on addition of cumate ([1]; pAdcTA1(−nls), 50 μg/ml cumate): 86% | reduction of activation on addition of cumate ([1]; pAdcTA1(−nls), 100 μg/ml cumate): 87% | reduction of activation on addition of cumate ([1]; pAdcTA1(−nls), 200 μg/ml cumate): 89% | decrease in activation by the transactivator on addition of cumate ([2]; pAdcTA1(+nls)): 9.4 fold | reduction in activation on addition of cumate ([2]; pAdcTA1(−nls)): 34 fold | VSVg expression on addition of cumate (western) (293-CymR clone 21): clearly evident | effects on morphology or growth rates (mammalian cells; 200 μg/ml cumate in media, 4 weeks): No visible effects | toxicity to mammalian cells (mammalian cells; concentrations that effectively regulate gene expression): does not appear to be toxic | GFP expression over mock infected cells after addition of cumate ([3]; AdCR5-GFPq MOI 100, 200 μg/ml cumate): 2 fold | GFP expression over mock infected cells after addition of cumate ([3]; AdCR5-GFPq MOI 300, 200 μg/ml cumate): 4.5 fold | GFP expression over mock infected cells after addition of cumate ([3]; AdCR5-GFPq MOI 900, 200 μg/ml cumate): 20.6 fold | induction of VSVg and syncitia formation on addition of cumate (293-CymR cells): induces the expression of VSVg | activity as activator (effector molecule) (293 CuO-GFP clone 13): good activators

From patent US8163894B2, “DNA for eukaryotic expression of CymR” (National Research Council of Canada, priority 2001, dated 2012)
